Test results reported in patent US20120121691A1, “Method for Increasing the Production of a Specific ACYL-Chain Dihydroceramide(s) for Improving the Effectiveness of Cancer Treatments” (priority 2010, published 2012).

Key:
COG-LL-317 = assay: DIMSCAN cytotoxicity assay, COG-LL-317; format: cell-based; details: COG-LL-317, sphinganine 1 μM, GT-11 0.5 μM, 48 hours
Excerpt: Cell culture. The pre-T acute lymphoblastic leukemia cell lines MOLT-4 and CCRF-CEM, small cell lung cancer cell line NCI-H146, non-small cell lung cancer cell line NCI-H1792, colon cancer cell lines LoVo and HT-29, and breast cancer cell line MCF-7, were purchased from American Type Culture Collection, Manassas, Va., and grown at 20%/5% and 5%/5%, respectively. COG-LL-317 and COG-LL-332 pre-T acute lymphoblastic leukemia cell lines were obtained from the TTUHSC Cancer Center Cell Repository and grown at 5%/5%. Cell line identities were verified by short tandem repeat analysis and mycoplasma testing was performed. Cell lines were maintained in RPMI-1640 medium supplemented with 10% fetal bovine serum (FBS, Invitrogen) in humidified, 37° C. incubators. For all experiments, ALL cell lines were seeded at […] in RPMI-1640 medium supplemented with 15% fetal bovine serum. Solid tumor cell lines were plated at 5×cells/mL in RPMI-1640 medium supplemented with 10% fetal bovine serum.
Cytotoxicity Assay. Cytoxicity is determined using the DIMSCAN assay system (R. Proffitt et al., Cytometry 24, 204-213 (1996); T. Frgala et al., Proc. AACR, 36, 303 (1995). The system employs digital imaging microscopy to quantify viable cells, which selectively accumulate fluorescein diacetate to become brightly fluorescent. The system is capable of measuring cytotoxicity over a 4-5 log dynamic range by quenching the residual fluorescence of dead and dying cells with eosin Y and quantifying the total fluorescence of viable cells using digital thresholding. Measured fluorescence is directly proportionate to the number of viable cells. A comparison of the total fluorescence of a drug-treated cell population to the fluorescence of a similar number of untreated cells yields a survival fraction. […]
The addition of C22:0-fatty acid, but not C18:0 or C22:1 fatty acids, increased cytotoxicity (FIGS. 7A-7F). […] Cytotoxicity was measured using DIMSCAN, and data was normalized to control and plotted as survival fraction (y-axis). […]

[1] = test system: intracellular sphingolipids, CCRF-CEM cells; assay: LC/MS/MS analysis of intracellular sphingolipids, CCRF-CEM; format: cell-based, human; details: for increase in corresponding dihydroceramide over sphinganine plus GT-11 alone: fatty acid in addition to sphinganine plus GT-11, six hours, P<0.05
Procedure: LC/MS/MS analysis of intracellular sphingolipids. Sphingolipids were separated using an Agilent 1200 HPLC (LC) and determined by ESI/MS/MS performed on a AB SCIEX 4000 QTRAP Hybrid Triple Quadrupole/Linear Ion Trap mass spectrometer (MS), operating in a multiple reaction monitoring positive ionization mode as described previously with moderate modifications (25). Briefly, 50 μL of a solution (1 μM) of internal sphingolipid standards (including -sphingosine, -sphinganine, -sphingosine-1-phosphate, and -ceramide) was added to each cell pellet sample. Lipids of each sample were extracted twice with 2 mL of the ethyl acetate/isopropyl alcohol/water (60:28:12; v:v) solvent system. Supernatants were transferred to glass tubes (Kimble Chase) and evaporated under air (10 PSI) at 40° C. After reconstitution in methanol (4 mL), 1 ml of each sample was separated for the determination of lipid phosphate. Remaining sample (3 mL) was dried and used for sphingolipid quantification. For ESI/MS/MS, the dried lipid sample was dissolved in mobile phase A. Samples were injected (10 μL) and separated on a Spectra C8SR, 150×3.0 mm, 3-μm particle size column using gradient-elution (mobile phase A/B, prepared as previously described).
Data acquisition, peak integration and analyte quantitation were performed using ABI/SCIEX Analyst 1.4.2 Software. Sphingolipid data were normalized to lipid phosphate as previously described (26). Briefly, samples were dried under air (10 PSI) and lipids were extracted using the method of Bligh and Dyer (27). Of importance for phosphate assay, only Kimble Chase disposable borosilicate tubes were used for minimal sample contamination. Organic phase was transferred to glass tubes and a known volume was separated to a new tube and dried at 80° C. Phosphate standards and dried samples were then heated with ashing buffer (water:10 N:70% [40:9:1]) at 160° C. overnight. Samples were then incubated with ammonium molybdate and ascorbic acid as previously described, and absorbance ([…]) was read using a SpectraMax.
CCRF-CEM cells were treated with drug/fatty acid vehicles (control), GT-11 (0.5 μM) alone, sphinganine (4 μM) alone or sphinganine (4 μM) plus GT-11 (0.5 μM) for six hours and subsequently prepared for sphingolipid analysis.
CCRF-CEM cells were treated with GT-11 (0.5 μM) alone, sphinganine (1 μM) alone or sphinganine (1 μM) plus GT-11 (0.5 μM) for six hours and prepared for quantitative analysis. DHCers were normalized to control and plotted as fold change (bar, z-axis). * indicates significance, with P<0.05. […] CCRF-CEM cells were treated with sphinganine (1 μM) plus GT-11 (0.5 μM) with and without specific solubilized fatty acids (carbon chain length (CX) and saturation (:X), Ex: C20:1=fatty acid with 20 carbons and one desaturation) for six hours and prepared for quantitative sphingolipid analysis. Dihydroceramides were normalized to control cells that received sphinganine plus GT-11 with no fatty acid and plotted as fold change (bar, z-axis). * indicates significance, with P<0.05.

[2] = fatty acid 5 μM in addition to sphinganine 1 μM plus GT-11 0.5 μM, six hours, P<0.001
[3] = fatty acid in addition to sphinganine, no GT-11, P<0.001

Row | Compound | effect of fatty acid co-treatment on cytotoxicity of sphinganine with GT-11 (COG-LL-317) | increase in corresponding dihydroceramide over sphinganine plus GT-11 alone [1] | increase in C22:0-DHCer over sphinganine plus GT-11 alone [1, 2] | increase in C24:0-DHCer over sphinganine plus GT-11 alone [1, 2] | increase in C22:0-Cer over sphinganine alone [1, 3] | increase in C24:0-Cer over sphinganine alone [1, 3]
1 | CCCCCCCC/C=C\CCCCCCCCCCCC(=O)O [C22:1-fatty acid] | not | significant increases | – | – | – | –
2 | CCCCCCCCCCCCCCCCCCCCCC(=O)O [C22:0-fatty acid] | increased | significant increases | 32 fold | 19 fold | 13 fold | 4.6 fold
